According to US9505728B2, “Triazolone compounds and uses thereof” (INCEPTION 2, INC., priority 2012, dated 2016):
pIC50: −log10 of the molar value.

biological target: T1, Human PPARα (Homo sapiens, UniProt Q07869); experiment: Human PPARα Reporter Assay (luciferase); type: cell-based; settings: human PPARα reporter cells, overnight incubation, antagonism; read-out: Luciferase IC50
T1 construct: host or cells: proprietary non-human mammalian cells
T1 sequence (Q07869 1-468): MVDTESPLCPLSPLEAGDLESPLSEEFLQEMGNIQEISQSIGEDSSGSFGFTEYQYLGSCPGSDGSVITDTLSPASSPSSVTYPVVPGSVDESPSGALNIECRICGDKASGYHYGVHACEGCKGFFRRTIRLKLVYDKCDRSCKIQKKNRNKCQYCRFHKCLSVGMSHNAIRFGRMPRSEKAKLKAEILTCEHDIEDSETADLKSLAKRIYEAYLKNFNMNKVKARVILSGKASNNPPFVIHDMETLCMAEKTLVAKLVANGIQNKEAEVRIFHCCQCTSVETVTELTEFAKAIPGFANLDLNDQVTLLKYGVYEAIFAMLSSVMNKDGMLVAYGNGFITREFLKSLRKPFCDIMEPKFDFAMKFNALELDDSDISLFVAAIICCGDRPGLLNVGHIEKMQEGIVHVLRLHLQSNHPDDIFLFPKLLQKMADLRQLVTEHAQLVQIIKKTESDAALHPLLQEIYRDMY
Method: Human PPARα Reporter Assay
The screening of test compounds for agonist or antagonist activities against human PPARα receptors was performed using a commercial kit, Human PPARα Reporter Assay System (Indigo Biosciences, Cat. #IB00111).
This nuclear receptor assay system utilizes proprietary non-human mammalian cells engineered to provide constitutive, high-level expression of Human PPARα. Because these cells incorporate a PPARα-responsive luciferase reporter gene, quantifying expressed luciferase activity provides a sensitive surrogate measure of PPARα activity in the treated cells. The primary application of this reporter assay system is in the screening of test samples to quantify any functional activity, either agonist or antagonist, that they may exert against human PPARα.
Briefly, reporter cells are dispensed into wells of the assay plate and then immediately dosed with test compounds. Following an overnight incubation, the treatment media is discarded and Luciferase Detection Reagent (LDR) is added. The intensity of light emission from the ensuing luciferase reaction provides a sensitive measure that is directly proportional to the relative level of PPARα activation in the reporter cells.

pIC50	SMILES
6.57	CCn1c(CCCc2ccc(-c3ccc4c(c3)C(C(=O)O)CO4)cc2)nn(Cc2ccc(C(C)(C)C)cc2)c1=O (racemic) [Example 96, (rac)-5-(4-(3-(1-(4-(tert-Butyl)benzyl)-4-ethyl-5-oxo-4,5-dihydro-1H-1,2,4-triazol-3-yl)propyl)phenyl)-2,3-dihydrobenzofuran-3-carboxylic acid]
7.02	CCn1c(CCCc2ccc(-c3cccc(CC(=O)O)c3)cc2)nn(Cc2ccc(C(C)(C)C)cc2)c1=O [Example 1, 2-(4′-(3-(1-(4-(tert-Butyl)benzyl)-4-ethyl-5-oxo-4,5-dihydro-1H-1,2,4-triazol-3-yl)propyl)-[1,1′-biphenyl]-3-yl)acetic acid]
7.24	CCn1c(CCCc2ccc(-c3cccc(C(=O)O)c3)cc2)nn(Cc2ccc(C(C)(C)C)cc2)c1=O [Example 2, 4′-(3-(1-(4-(tert-Butyl)benzyl)-4-ethyl-5-oxo-4,5-dihydro-1H-1,2,4-triazol-3-yl)propyl)-[1,1′-biphenyl]-3-carboxylic acid]
6.57	CCn1c(CCCc2ccc(-c3cccc(N)n3)cc2)nn(Cc2ccc(C(C)(C)C)cc2)c1=O [Example 3, 3-(3-(4-(6-Aminopyridin-2-yl)phenyl)propyl)-1-(4-(tert-butyl)benzyl)-4-ethyl-1H-1,2,4-triazol-5(4H)-one]
7.40	CCn1c(CCCc2ccc(-c3cccc(NS(=O)(=O)c4ccccc4)n3)cc2)nn(Cc2ccc(C(C)(C)C)cc2)c1=O [Example 4, N-(6-(4-(3-(1-(4-(tert-Butyl)benzyl)-4-ethyl-5-oxo-4,5-dihydro-1H-1,2,4-triazol-3-yl)propyl)phenyl)pyridin-2-yl)benzenesulfonamide]
7.37	CCn1c(CCCc2ccc(-c3ccc(N)cn3)cc2)nn(Cc2ccc(C(C)(C)C)cc2)c1=O [Example 5, 3-(3-(4-(5-Aminopyridin-2-yl)phenyl)propyl)-1-(4-(tert-butyl)benzyl)-4-ethyl-1H-1,2,4-triazol-5(4H)-one]
6.59	CCn1c(CCCc2ccc(-c3cccc(N)c3)cc2)nn(Cc2ccc(C(C)(C)C)cc2)c1=O [Example 6, 3-(3-(3′-Amino-[1,1′-biphenyl]-4-yl)propyl)-1-(4-(tert-butyl)benzyl)-4-ethyl-1H-1,2,4-triazol-5(4H)-one]
6.33	CCn1c(CCCc2ccc(-c3cccc(NS(=O)(=O)c4ccc(C)cc4)c3)cc2)nn(Cc2ccc(C(C)(C)C)cc2)c1=O [Example 7, N-(4′-(3-(1-(4-(tert-Butyl)benzyl)-4-ethyl-5-oxo-4,5-dihydro-1H-1,2,4-triazol-3-yl)propyl)-[1,1′-biphenyl]-3-yl)-4-methylbenzenesulfonamide]
6.52	CCn1c(CCCc2ccc(-c3cccc(CC(=O)NS(=O)(=O)c4ccccc4)c3)cc2)nn(Cc2ccc(C(C)(C)C)cc2)c1=O [Example 8, 2-(4′-(3-(1-(4-(tert-Butyl)benzyl)-4-ethyl-5-oxo-4,5-dihydro-1H-1,2,4-triazol-3-yl)propyl)-[1,1′-biphenyl]-3-yl)-N-(phenylsulfonyl) acetamide]
6.44	CCn1c(CCCc2ccc(-c3cccc(C(=O)NS(=O)(=O)c4ccccc4)c3)cc2)nn(Cc2ccc(C(C)(C)C)cc2)c1=O [Example 9, 4′-(3-(1-(4-(tert-Butyl)benzyl)-4-ethyl-5-oxo-4,5-dihydro-1H-1,2,4-triazol-3-yl)propyl)-N-(phenylsulfonyl)-[1,1′-biphenyl]-3-carboxamide]
6.80	CCn1c(CCCc2ccc(-c3cc(N)ccn3)cc2)nn(Cc2ccc(C(C)(C)C)cc2)c1=O [Example 11, 3-(3-(4-(4-Aminopyridin-2-yl)phenyl)propyl)-1-(4-(tert-butyl)benzyl)-4-ethyl-1H-1,2,4-triazol-5(4H)-one]
7.20	CCn1c(CCCc2ccc(-c3ccc(NS(C)(=O)=O)cn3)cc2)nn(Cc2ccc(C(C)(C)C)cc2)c1=O [Example 12, N-(6-(4-(3-(1-(4-(tert-Butyl)benzyl)-4-ethyl-5-oxo-4,5-dihydro-1H-1,2,4-triazol-3-yl)propyl)phenyl)pyridin-3-yl)methanesulfonamide]
6.57	CCn1c(CCCc2ccc(-c3cccc(C4(C(=O)O)CC4)c3)cc2)nn(Cc2ccc(C(C)(C)C)cc2)c1=O [Example 13, 1-(4′-(3-(1-(4-(tert-Butyl)benzyl)-4-ethyl-5-oxo-4,5-dihydro-1H-1,2,4-triazol-3-yl)propyl)-[1,1′-biphenyl]-3-yl)cyclopropanecarboxylic acid]
6.55	CCn1c(CCCc2ccc(-c3cccc(C4(C(N)=O)CC4)c3)cc2)nn(Cc2ccc(C(C)(C)C)cc2)c1=O [Example 14, 1-(4′-(3-(1-(4-(tert-butyl)benzyl)-4-ethyl-5-oxo-4,5-dihydro-1H-1,2,4-triazol-3-yl)propyl)-[1,1′-biphenyl]-3-yl)cyclopropanecarboxamide]
6.28	CCn1c(CCCc2ccc(-c3cccc(C(C)(C)C(N)=O)c3)cc2)nn(Cc2ccc(C(C)(C)C)cc2)c1=O [Example 15, 2-(4′-(3-(1-(4-(tert-Butyl)benzyl)-4-ethyl-5-oxo-4,5-dihydro-1H-1,2,4-triazol-3-yl)propyl)-[1,1′-biphenyl]-3-yl)-2-methylpropanamide]
7.05	CCn1c(CCCc2ccc(-c3cc(NS(=O)(=O)c4ccccc4)ccn3)cc2)nn(Cc2ccc(C(C)(C)C)cc2)c1=O [Example 16, N-(2-(4-(3-(1-(4-(tert-Butyl)benzyl)-4-ethyl-5-oxo-4,5-dihydro-1H-1,2,4-triazol-3-yl)propyl)phenyl)pyridin-4-yl)benzenesulfonamide]
5.85	CCn1c(CCCc2ccc(-c3cccc(CC(=O)O)c3F)cc2)nn(Cc2ccc(C(C)(C)C)cc2)c1=O [Example 18, 2-(4′-(3-(1-(4-(tert-Butyl)benzyl)-4-ethyl-5-oxo-4,5-dihydro-1H-1,2,4-triazol-3-yl)propyl)-2-fluoro-[1,1′-biphenyl]-3-yl)acetic acid]
6.10	CCn1c(CCCc2ccc(-c3cc(CC(=O)O)ccc3F)cc2)nn(Cc2ccc(C(C)(C)C)cc2)c1=O [Example 19, 2-(4′-(3-(1-(4-(tert-Butyl)benzyl)-4-ethyl-5-oxo-4,5-dihydro-1H-1,2,4-triazol-3-yl)propyl)-6-fluoro-[1,1′-biphenyl]-3-yl)acetic acid]
5.74	CCn1c(CCCc2ccc(-c3cc(CC(=O)O)ccc3OC)cc2)nn(Cc2ccc(C(C)(C)C)cc2)c1=O [Example 20, 2-(4′-(3-(1-(4-(tert-Butyl)benzyl)-4-ethyl-5-oxo-4,5-dihydro-1H-1,2,4-triazol-3-yl)propyl)-6-methoxy-[1,1′-biphenyl]-3-yl)acetic acid]
7.60	CCn1c(CCCc2ccc(-c3ccc(OC)c(CC(=O)O)c3)cc2)nn(Cc2ccc(C(C)(C)C)cc2)c1=O [Example 21, 2-(4′-(3-(1-(4-(tert-Butyl)benzyl)-4-ethyl-5-oxo-4,5-dihydro-1H-1,2,4-triazol-3-yl)propyl)-4-methoxy-[1,1′-biphenyl]-3-yl)acetic acid]
6.21	CCn1c(CCCc2ccc(-c3cccc(CC(=O)O)c3)cc2)nn(Cc2ccc(C3CC3)cc2)c1=O [Example 22, 2-(4′-(3-(1-(4-Cyclopropylbenzyl)-4-ethyl-5-oxo-4,5-dihydro-1H-1,2,4-triazol-3-yl)propyl)-[1,1′-biphenyl]-3-yl)acetic acid]
6.24	CCn1c(CCCc2ccc(-c3cccc(CC(=O)O)c3)cc2)nn(Cc2ccc(C(F)(F)F)cc2)c1=O [Example 24, 2-(4′-(3-(4-Ethyl-5-oxo-1-(4-(trifluoromethyl)benzyl)-4,5-dihydro-1H-1,2,4-triazol-3-yl)propyl)-[1,1′-biphenyl]-3-yl)acetic acid]
6.74	CCn1c(CCCc2ccc(-c3nc(NC(=O)OC(C)(C)C)co3)cc2)nn(Cc2ccc(C(C)(C)C)cc2)c1=O [Example 25, tert-Butyl (2-(4-(3-(1-(4-(tert-butyl)benzyl)-4-ethyl-5-oxo-4,5-dihydro-1H-1,2,4-triazol-3-yl)propyl)phenyl)oxazol-4-yl)carbamate]
5.39	CCn1c(CCCc2ccc(-c3cccc(CC(=O)O)c3)cc2)nn(Cc2ccc(C3CCCCC3)cc2)c1=O [Example 26, 2-(4′-(3-(1-(4-Cyclohexylbenzyl)-4-ethyl-5-oxo-4,5-dihydro-1H-1,2,4-triazol-3-yl)propyl)-[1,1′-biphenyl]-3-yl)acetic acid]
5.66	CCn1c(COCc2ccc(-c3cccc(CC(=O)O)c3)cc2)nn(Cc2ccc(C(C)(C)C)cc2)c1=O [Example 27, 2-(4′(((1-(4-(tert-Butyl)benzyl)-4-ethyl-5-oxo-4,5-dihydro-1H-1,2,4-triazol-3-yl)methoxy)methyl)-[1,1′-biphenyl]-3-yl)acetic acid]
5.70	CCn1c(CCCc2ccc(-c3cccc(C(F)(F)C(=O)O)c3)cc2)nn(Cc2ccc(C(C)(C)C)cc2)c1=O [Example 28, 2-(4′-(3-(1-(4-(tert-Butyl)benzyl)-4-ethyl-5-oxo-4,5-dihydro-1H-1,2,4-triazol-3-yl)propyl)-[1,1′-biphenyl]-3-yl)-2,2-difluoroacetic acid]
